# Reference: publication PMC8245078, “Development of novel benzofuran-isatin conjugates as potential antiproliferative agents with apoptosis inducing mechanism in Colon cancer” (Journal of Enzyme Inhibition and Medicinal Chemistry, 2021)
# Tests used:
# Test in all cases: NCI single dose screening (10 µM)
# Assay type in all cases: cell-based
# SF-268 = conditions: Homo sapiens, SF-268, read-out: GI% (cell growth inhibition percentage)
# SR = conditions: Homo sapiens, read-out: GI% (cell growth inhibition percentage)
# MDA-MB-468 = conditions: Homo sapiens, MDA-MB-468, read-out: GI% (cell growth inhibition percentage)
# HT-29 = conditions: Homo sapiens, HT-29, read-out: GI% (cell growth inhibition percentage)
# MDA-MB-231/ATCC = conditions: Homo sapiens, MDA-MB-231, read-out: GI% (cell growth inhibition percentage)
# MDA-MB-435 = conditions: Homo sapiens, MDA-MB-435, read-out: GI% (cell growth inhibition percentage)
# OVCAR-4 = conditions: Homo sapiens, OVCAR-4, read-out: GI% (cell growth inhibition percentage)
# U251 = conditions: Homo sapiens, U-251, read-out: GI% (cell growth inhibition percentage)
# K-562 = conditions: Homo sapiens, K562, read-out: GI% (cell growth inhibition percentage)
# OVCAR-3 = conditions: Homo sapiens, OVCAR-3, read-out: GI% (cell growth inhibition percentage)
# OVCAR-5 = conditions: Homo sapiens, OVCAR-5, read-out: GI% (cell growth inhibition percentage)
# ACHN = conditions: Homo sapiens, read-out: GI% (cell growth inhibition percentage)
# SW-620 = conditions: Homo sapiens, SW-620, read-out: GI% (cell growth inhibition percentage)
# DU-145 = conditions: Homo sapiens, DU-145, read-out: GI% (cell growth inhibition percentage)
# MOLT-4 = conditions: Homo sapiens, MOLT-4, read-out: GI% (cell growth inhibition percentage)
# T-47D = conditions: Homo sapiens, T47D, read-out: GI% (cell growth inhibition percentage)
# UO-31 = conditions: Homo sapiens, UO-31, read-out: GI% (cell growth inhibition percentage)
# BT-549 = conditions: Homo sapiens, BT-549, read-out: GI% (cell growth inhibition percentage)
# SF-539 = conditions: Homo sapiens, SF-539, read-out: GI% (cell growth inhibition percentage)
# SF-295 = conditions: Homo sapiens, SF-295, read-out: GI% (cell growth inhibition percentage)
# SK-MEL-28 = conditions: Homo sapiens, SK-MEL-28, read-out: GI% (cell growth inhibition percentage)
# IGROV1 = conditions: Homo sapiens, IGROV-1, read-out: GI% (cell growth inhibition percentage)
# SN12C = conditions: Homo sapiens, read-out: GI% (cell growth inhibition percentage)
# HOP-92 = conditions: Homo sapiens, HOP-92, read-out: GI% (cell growth inhibition percentage)
# COLO 205 = conditions: Homo sapiens, COLO 205, read-out: GI% (cell growth inhibition percentage)
# HL-60(TB) = conditions: Homo sapiens, HL-60, read-out: GI% (cell growth inhibition percentage)
# MALME-3M = conditions: Homo sapiens, Malme-3M, read-out: GI% (cell growth inhibition percentage)
# EKVX = conditions: Homo sapiens, read-out: GI% (cell growth inhibition percentage)
# HS 578 T = conditions: Homo sapiens, Hs-578T, read-out: GI% (cell growth inhibition percentage)
# HCC-2998 = conditions: Homo sapiens, HCC 2998, read-out: GI% (cell growth inhibition percentage)
# M14 = conditions: Homo sapiens, M14, read-out: GI% (cell growth inhibition percentage)
# CAKI-1 = conditions: Homo sapiens, CAKI-1, read-out: GI% (cell growth inhibition percentage)
Compound,inhibition at 10 µM (SF-268),inhibition at 10 µM (SR),inhibition at 10 µM (MDA-MB-468),inhibition at 10 µM (HT-29),inhibition at 10 µM (MDA-MB-231/ATCC),inhibition at 10 µM (MDA-MB-435),inhibition at 10 µM (OVCAR-4),inhibition at 10 µM (U251),inhibition at 10 µM (K-562),inhibition at 10 µM (OVCAR-3),inhibition at 10 µM (OVCAR-5),inhibition at 10 µM (ACHN),inhibition at 10 µM (SW-620),inhibition at 10 µM (DU-145),inhibition at 10 µM (MOLT-4),inhibition at 10 µM (T-47D),inhibition at 10 µM (UO-31),inhibition at 10 µM (BT-549),inhibition at 10 µM (SF-539),inhibition at 10 µM (SF-295),other results
CCCN1C(=O)/C(=N\NC(=O)c2oc3ccccc3c2C)c2cc(Br)ccc21 [Compound 7g],< 10%,< 10%,< 10%,< 10%,< 10%,< 10%,< 10%,< 10%,< 10%,< 10%,< 10%,< 10%,< 10%,< 10%,< 10%,< 10%,21.9%,< 10%,< 10%,< 10%,inhibition at 10 µM (SK-MEL-28): < 10%; inhibition at 10 µM (IGROV1): 22.4%; inhibition at 10 µM (SN12C): < 10%; inhibition at 10 µM (HOP-92): < 10%; inhibition at 10 µM (COLO 205): < 10%; inhibition at 10 µM (HL-60(TB)): < 10%; inhibition at 10 µM (MALME-3M): 16%; inhibition at 10 µM (EKVX): 18.1%; inhibition at 10 µM (HS 578 T): < 10%; inhibition at 10 µM (HCC-2998): < 10%; inhibition at 10 µM (M14): < 10%; inhibition at 10 µM (CAKI-1): 14.1%
Cc1c(C(=O)N/N=C2\C(=O)N(Cc3ccccc3)c3ccccc32)oc2ccccc12 [Compound 7d],< 10%,< 10%,< 10%,< 10%,18.3%,< 10%,< 10%,< 10%,< 10%,< 10%,< 10%,13.3%,11.2%,< 10%,< 10%,33.3%,33.6%,< 10%,< 10%,< 10%,inhibition at 10 µM (SK-MEL-28): < 10%; inhibition at 10 µM (IGROV1): 33.6%; inhibition at 10 µM (SN12C): < 10%; inhibition at 10 µM (HOP-92): 12.6%; inhibition at 10 µM (COLO 205): < 10%; inhibition at 10 µM (HL-60(TB)): < 10%; inhibition at 10 µM (MALME-3M): < 10%; inhibition at 10 µM (EKVX): 30.2%; inhibition at 10 µM (HS 578 T): < 10%; inhibition at 10 µM (HCC-2998): < 10%; inhibition at 10 µM (M14): < 10%; inhibition at 10 µM (CAKI-1): 19%
